Measurements as given in US10716769B2 (GUANGZHOU JTREAT BIOSCI. LTD., priority 2015, dated 2020).
≈ marks a conversion by molar mass, not a printed value.

What was measured:
[1] = test system: HPV16/18; experiment: HPV detection via fluorescence quantitative PCR in genital warts tissue homogenate; parameters: species or system human papillomavirus; conditions: for HPV16/18 virus detection, in words: 24 hours after addition into the tissue homogenate of genital warts; for HPV16/18: genital warts tissue homogenate, 37° C., 24 hours, FQ-PCR
Text: (§1) The aforesaid compounds and/or compositions containing the same are effective in killing and inhibiting HPV type 6/11 and type 16/18, which can be used for the preparation of drugs for preventing and treating viral infection of HPV, preventing and treating genital warts, flat warts, common warts, vaginitis, cervicitis and cervical erosion, cervical cancer, esophageal cancer and other cancers caused by HPV. The present invention observes the effect of active ingredients and products by the detection of the change in the amount of the HPV virus through the real-time quantitative PCR. Such method has been applied in several publications (Youling C A I, et al., Chinese STD/AIDS, 2002, 8: 2,108; Yuansheng W U, Ruijiang F A N, et al., Practical Application of Integrated Chinese and Western Medicine in Clinics, 2003, 3: 2,1).
(§2) The microemulsion obtained in example 1 is used as a test sample and saline for blank control.
(§3) The standard clinical genital warts specimens from a variety of patients after being cut off are washed with saline for removing bloods, and are cut into pieces under aseptic conditions, added with saline in 3 times of their volumes to be uniformly mixed, grinded into homogenate and placed at −40° C. for use.
(§4) Each test sample drug microemulsion and the saline of 50 μl for each are respectively added with 50 μl the genital warts tissue homogenate, and incubated at 37° C. for 24 hours; tests are performed according to the operation procedure provided by the HPV6, 11 and 16, 18 type FQ-PCR diagnostic kits provided by Da'an Gene Diagnostic Center. 0.2 ml of DNA extracted by the conventional alkaline lysis method is put into the thin-walled reaction tube, and simultaneously added with primers, F-PROBE, DNTP, DNA polymerase, buffers and the like in a certain concentration; ABI PRISM™ 7700 fluorescence quantitative PCR amplifier is used to repeat 40 circulations each with 45 s at 93° C. and 120 s at 55° C. after predegeneration at 93° C. for 2 mins; the quantitative results are automatically analyzed by the computer software to calculate the quantitative results of the initial copy number. The data are shown in Table 2 (completed by Da'an Gene Clinical Test Center).

[2] = test system: HPV 6/11 Virus; experiment: as above; parameters: species or system human papillomavirus; conditions: for HPV 6/11 virus detection, in words: 24 hours after addition into the tissue homogenate of genital warts; for HPV 6/11 Virus: genital warts tissue homogenate, 37° C., 24 hours, FQ-PCR
Text: as §1, §2, §3, §4

[3] = test system: HSV-II, SAV strain; experiment: Inhibition of cytopathic effects of Vero cells caused by herpes virus type II; format: cell-based; conditions: Human alphaherpesvirus 2; Vero cells, CPE 48 hours, Reed-Muench; read-out: IC50 Against HSV-II
Text: Vero cells (kidney cells of African green monkey) are used as viral hosts to test the inhibition degree of the samples to the cytopathic effects of Vero cells caused by herpes virus type I and type II.
Vero cells (kidney cells of African green monkey) are used as viral hosts to test the inhibition degree of the samples to cytopathic effects of the Vero cell caused by herpes virus type I and type II.
1. Virus strains: HSV-I, VR733 strain, and HSV-II, SAV strain, which both are provided by ATCC.
2. Sample treatment: the sample is dissolved in DMSO at an appropriate concentration before use, and diluted with the culture medium 3 times at a total of 8 dilutions for test.
3. Positive control drug: acyclovir (ACV) produced by the Hubei Ke Yi pharmaceutical factory.

Row | Structure (SMILES) | HPV16/18 virus detection, in words [1] | HPV16/18 [1] | HPV 6/11 virus detection, in words [2] | HPV 6/11 Virus [2] | IC50 [3]
1 | O=C(c1cc(O)c(O)cc1O)c1ccc(O)c(O)c1O | can no longer be detected | 0 copy/ml | can no longer be detected | 0 copy/ml | 
2 | O=C(c1ccc(O)c(O)c1O)c1ccc(O)c(O)c1O [2,3,4,2′,3′,4′-hexahydroxybenzophenone] | can no longer be detected | 0 copy/ml | can no longer be detected | 0 copy/ml | 10.8 µg/mL (≈ 39 µM)
3 | O=C(c1ccccc1)c1ccc(O)c(O)c1O [2,3,4-trihydroxybenzophenone] | can no longer be detected | 0 copy/ml | can no longer be detected | 0 copy/ml | 28.7 µg/mL (≈ 125 µM)
4 | O=C(c1ccc(O)cc1O)c1ccc(O)cc1O [2,4,2′,4′-tetrahydroxybenzophenone] | can no longer be detected | 0 copy/ml | can no longer be detected | 0 copy/ml | 28.7 µg/mL (≈ 117 µM)
